The values that follow come from patent US5236926A, “9-substituted-8-halo or -8-hydroxy-9-deazaguanines as inhibitors or PNP for pharmaceutical compositions” (Warner-Lambert Company, priority 1992, dated 1993).

One experiment relates to skin graft in dogs. The conditions noted are these: cited from earlier work.
Experiment [1] addresses T1, purine nucleoside phosphorylase (PNP-4) (Homo sapiens, UniProt P00491).
T1 construct: using human erythrocyte as the enzyme source; from tissue; host or cells: human erythrocyte
T1 sequence (P00491 1-289): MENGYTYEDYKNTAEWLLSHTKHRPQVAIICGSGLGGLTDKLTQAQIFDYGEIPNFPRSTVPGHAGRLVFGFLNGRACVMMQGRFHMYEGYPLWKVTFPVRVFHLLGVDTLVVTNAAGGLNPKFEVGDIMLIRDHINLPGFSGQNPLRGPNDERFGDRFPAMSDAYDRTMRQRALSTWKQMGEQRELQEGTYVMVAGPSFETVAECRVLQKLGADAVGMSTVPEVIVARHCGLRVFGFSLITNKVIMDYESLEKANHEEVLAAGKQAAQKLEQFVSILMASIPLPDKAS
The experiment in a line: PNP-4 enzyme assay (radiochemical, [14C]-hypoxanthine formation from [14C]inosine). It counts as biochemical. The conditions noted are these: human erythrocyte as enzyme source; activity table. The method, then: In the purine nucleoside phosphorylase (PNP-4) enzyme assay, an IC50 is achieved at a dose of about from 0.9 to 3.18 micromoles on selected compounds of the present invention. PNP-4 activity for the compounds of Formula I is measured radiochemically by measuring the formation of [^14 -C]-hypoxanthine from [^14 -C]inosine [Biomedicine 33:39 (1980)]using human erythrocyte as the enzyme source. An in vivo inhibition of purine nucleoside phosphorylase (HPLC-1) enzyme assay is used essentially as disclosed in the Annals of New York Academy of Sciences 451:313 (1985) to further show the activity of the compounds of Formula I of the present invention. […] Since removal of T-cells or modulation of T-cells are beneficial in the treatment of autoimmune diseases, these compounds being selectively cytotoxic to T-cells will, therefore, be useful in their treatment. […] Clinically it has been shown that modulation and/or removal of T-cells by thoracic duct drainage, lymphapheresis, or total lymphoid irradiation gave partial to complete relief from rheumatoid arthritis in patients who were totally refractory to other forms of therapy [A. Tanay, et al, Arthritis and Rheumatism 30(1):1 (1987); S. Strober, et al, Annual of Internal Medicine V-102(4):441-449 (1985); H. G. Nusslein, et al, Arthritis and Rheumatism V-28(11):1205-1210 (1985); E. Brahn, et al, ibid V-27(5):481-487 (1984); and J. Karsh, et al, ibid V 24(7):867-873. (1981)]. […] N. Ellis, et al, JAMA V-256( 22):3110-3116 (Dec. 12, 1986).

On to `Nc1nc2c(nc(N)n2[C@@H]2O[C@H](CO)[C@@H](O)[C@H]2O)c(=O)[nH]1` [8-Aminoguanosine], for which the “inhibition of rejection of skin graft” value in the experiment on skin graft in dogs is on record as “efficacious for inhibiting rejection of skin graft in dogs”.

For `Nc1nc2c(Cc3ccsc3)c(Br)[nH]c2c(=O)[nH]1` [Example 3, 2-Amino-6-bromo-3,5-dihydro-7-(3-thienylmethyl)-4H-pyrrolo[3,2-d]pyrimidin-4-one], half-maximal inhibition in experiment [1] (IC50) required 6900 nM.

Compound `Nc1nc2c(Cc3ccsc3)c(I)[nH]c2c(=O)[nH]1` [Example 5] gave an IC50 in experiment [1] greater than 30000 nM.

As to `Nc1nc2c(Cc3ccsc3)c(Cl)[nH]c2c(=O)[nH]1` [Example 6, 2-Amino-6-chloro-3,5-dihydro-7-(3-thienylmethyl)-4H-pyrrolo[3,2-d]pyrimidin-4-one], 2770 nM corresponded to half-maximal inhibition in experiment [1] (IC50).

`Nc1nc2c(Cc3ccsc3)c(F)[nH]c2c(=O)[nH]1` [Example 8, 2-Amino-6-fluoro-3,5-dihydro-7-(3-thienylmethyl) 4H-pyrrolo[3,2-d]pyrimidin-4 one] registered an IC50 in experiment [1] of 150 nM.
